Results reported in patent US20230143604A1, “QW DOSING OF GIP RECEPTOR AGONIST PEPTIDE COMPOUNDS AND USES THEREOF” (TAKEDA PHARMACEUTICAL COMPANY LIMITED, priority 2020, published 2023).
Starred links: 1 amine or outer side, 2 acyl side, 3 side chain; linkers in the order of their positions; H or OH if unused. Non-standard residues stand in square brackets, D forms with d. Residues, ends and D or L forms follow the SMILES beside them. Groups on a side chain read outwards from the residue. *: point of attachment. C18 diacid = O=C(O)CCCCCCCCCCCCCCCCC(=O)*; C17 diacid = O=C(O)CCCCCCCCCCCCCCCC(=O)*; γGlu = O=C(O)[C@H](CCC(=O)[*:2])N[*:1]; NMeY = CN[C@@H](Cc1ccc(O)cc1)C(=O)O; AEEA = NCCOCCOCC(=O)O; Aib = CC(C)(N)C(=O)O

Experiment: physchem
Procedure, shortened: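 Solubility at pH 7.4 determined by stepwise addition of 200 mM phosphate buffer in 100 μL increments to 3 mg peptide, mixing briefly each time, until no insoluble material remained, then measured by liquid chromatography.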

Row | SMILES | solubility (pH 7.4) [mg/mL] | solubility (pH 7.4, aqueous buffer) [mg/mL] | solubility (pH 7.4, aqueous buffer, pH 7.4 Phosphate Buffer - Solubility, 200 mM Phosphate buffer pH 7.4) [mg/mL] | solubility (pH 7.4, solubility in phosphate buffer at pH 7.4, 200 mM phosphate buffer pH 7.4) [mg/mL]
1 | CC[C@H](C)[C@H](NC(=O)[C@H](CO)NC(=O)[C@H](Cc1ccc(O)cc1)NC(=O)[C@H](CC(=O)O)NC(=O)[C@H](CO)NC(=O)[C@@H](NC(=O)[C@H](Cc1ccccc1)NC(=O)[C@@H](NC(=O)CNC(=O)[C@H](CCC(=O)O)NC(=O)C(C)(C)NC(=O)[C@H](Cc1ccc(O)cc1)NC)[C@@H](C)O)[C@@H](C)CC)C(=O)N[C@@H](C)C(=O)N[C@@H](CC(C)C)C(=O)N[C@@H](CC(=O)O)C(=O)N[C@@H](CCCNC(=N)N)C(=O)NC(C)(C)C(=O)N[C@@H](CCCCNC(=O)COCCOCCNC(=O)COCCOCCNC(=O)CC[C@H](NC(=O)CC[C@H](NC(=O)CCCCCCCCCCCCCCCC(=O)O)C(=O)O)C(=O)O)C(=O)N[C@@H](CCC(N)=O)C(=O)NC(C)(C)C(=O)N[C@@H](CC(N)=O)C(=O)N[C@@H](Cc1ccccc1)C(=O)N[C@H](C(=O)N[C@@H](CC(N)=O)C(=O)N[C@@H](Cc1c[nH]c2ccccc12)C(=O)N[C@@H](CC(C)C)C(=O)N[C@@H](CC(C)C)C(=O)N[C@@H](C)C(=O)N[C@@H](CCC(N)=O)C(=O)N[C@@H](CO)C(=O)NCC(=O)NCC(=O)NCC(=O)NCC(=O)N[C@@H](CO)C(N)=O)C(C)C [Compound 31] (H-[NMeY][Aib]EGTFISDYSIALDR[Aib]K([AEEA-AEEA-γGlu-γGlu-C17 diacid])Q[Aib]NFVNWLLAQSGGGGS-NH2) | ≥ 15 | ≥ 30 | – | –
2 | CC[C@H](C)[C@H](NC(=O)[C@H](CO)NC(=O)[C@H](Cc1ccc(O)cc1)NC(=O)[C@H](CC(=O)O)NC(=O)[C@H](CO)NC(=O)[C@@H](NC(=O)[C@H](Cc1ccccc1)NC(=O)[C@@H](NC(=O)CNC(=O)[C@H](CCC(=O)O)NC(=O)C(C)(C)NC(=O)[C@H](Cc1ccc(O)cc1)NC)[C@@H](C)O)[C@@H](C)CC)C(=O)N[C@@H](C)C(=O)N[C@@H](CC(C)C)C(=O)N[C@@H](CC(=O)O)C(=O)N[C@@H](CCCNC(=N)N)C(=O)NC(C)(C)C(=O)N[C@@H](Cc1c[nH]cn1)C(=O)N[C@@H](CCC(N)=O)C(=O)NC(C)(C)C(=O)N[C@@H](CCCCNC(=O)COCCOCCNC(=O)COCCOCCNC(=O)CC[C@H](NC(=O)CC[C@H](NC(=O)CCCCCCCCCCCCCCCC(=O)O)C(=O)O)C(=O)O)C(=O)N[C@@H](Cc1ccccc1)C(=O)N[C@H](C(=O)N[C@@H](CC(N)=O)C(=O)N[C@@H](Cc1c[nH]c2ccccc12)C(=O)N[C@@H](CC(C)C)C(=O)N[C@@H](CC(C)C)C(=O)N[C@@H](C)C(=O)N[C@@H](CCC(N)=O)C(=O)N[C@@H](CCCNC(=N)N)C(N)=O)C(C)C [Compound 257] (H-[NMeY][Aib]EGTFISDYSIALDR[Aib]HQ[Aib]K([AEEA-AEEA-γGlu-γGlu-C17 diacid])FVNWLLAQR-NH2) | – | ≥ 7.5 | – | –
3 | CC[C@H](C)[C@H](NC(=O)[C@H](CO)NC(=O)[C@H](Cc1ccc(O)cc1)NC(=O)[C@H](CC(=O)O)NC(=O)[C@H](CO)NC(=O)[C@@H](NC(=O)[C@H](Cc1ccccc1)NC(=O)[C@@H](NC(=O)CNC(=O)[C@H](CCC(=O)O)NC(=O)C(C)(C)NC(=O)[C@H](Cc1ccc(O)cc1)NC)[C@@H](C)O)[C@@H](C)CC)C(=O)N[C@@H](C)C(=O)N[C@@H](CCCCNC(=O)CNC(=O)CNC(=O)CNC(=O)CNC(=O)CNC(=O)CCCCCCCCCCCCCCCCC(=O)O)C(=O)N[C@@H](CC(=O)O)C(=O)N[C@@H](CCCNC(=N)N)C(=O)NC(C)(C)C(=O)N[C@@H](C)C(=O)N[C@@H](CCC(N)=O)C(=O)NC(C)(C)C(=O)N[C@@H](CC(N)=O)C(=O)N[C@@H](Cc1ccccc1)C(=O)N[C@H](C(=O)N[C@@H](CC(N)=O)C(=O)N[C@@H](Cc1c[nH]c2ccccc12)C(=O)N[C@@H](CC(C)C)C(=O)N[C@@H](CC(C)C)C(=O)N[C@@H](C)C(=O)N[C@@H](CCC(N)=O)C(=O)N[C@@H](CCCNC(=N)N)C(=O)O)C(C)C [Compound 251] | – | ≥ 7 | – | –
4 | CC[C@H](C)[C@H](NC(=O)[C@H](CO)NC(=O)[C@H](Cc1ccc(O)cc1)NC(=O)[C@H](CC(=O)O)NC(=O)[C@H](CO)NC(=O)[C@@H](NC(=O)[C@H](Cc1ccccc1)NC(=O)[C@@H](NC(=O)CNC(=O)[C@H](CCC(=O)O)NC(=O)C(C)(C)NC(=O)[C@@H](N)Cc1ccc(O)cc1)[C@@H](C)O)[C@@H](C)CC)C(=O)N[C@@H](C)C(=O)N[C@@H](CC(C)C)C(=O)N[C@@H](CC(=O)O)C(=O)N[C@@H](CCCCN)C(=O)NC(C)(C)C(=O)N[C@@H](C)C(=O)N[C@@H](CCC(N)=O)C(=O)N[C@@H](CCCNC(=N)N)C(=O)N[C@@H](CCCCNC(=O)COCCOCCNC(=O)COCCOCCNC(=O)CC[C@H](NC(=O)CC[C@H](NC(=O)CCCCCCCCCCCCCCCCC(=O)O)C(=O)O)C(=O)O)C(=O)N[C@@H](Cc1ccccc1)C(=O)N[C@H](C(=O)N[C@@H](CCC(=O)O)C(=O)N[C@@H](Cc1c[nH]c2ccccc12)C(=O)N[C@@H](CC(C)C)C(=O)N[C@@H](CC(C)C)C(=O)N[C@@H](C)C(=O)N[C@@H](CCC(N)=O)C(=O)N[C@@H](CCCNC(=N)N)C(=O)NCC(=O)O)C(C)C [Compound 156] (H-Y[Aib]EGTFISDYSIALDK[Aib]AQRK([AEEA-AEEA-γGlu-γGlu-C18 diacid])FVEWLLAQRG-OH) | ≥ 15 | ≥ 30 | – | –
5 | CC[C@H](C)[C@H](NC(=O)[C@H](CO)NC(=O)[C@H](Cc1ccc(O)cc1)NC(=O)[C@H](CC(=O)O)NC(=O)[C@H](CO)NC(=O)[C@@H](NC(=O)[C@H](Cc1ccccc1)NC(=O)[C@@H](NC(=O)CNC(=O)[C@H](CCC(=O)O)NC(=O)C(C)(C)NC(=O)[C@H](Cc1ccc(O)cc1)NC)[C@@H](C)O)[C@@H](C)CC)C(=O)N[C@@H](C)C(=O)N[C@@H](CC(C)C)C(=O)N[C@@H](CC(=O)O)C(=O)N[C@@H](CCCNC(=N)N)C(=O)N[C@@H](CCCCNC(=O)CNC(=O)CNC(=O)CNC(=O)CNC(=O)CNC(=O)CCCCCCCCCCCCCCCCC(=O)O)C(=O)N[C@@H](C)C(=O)N[C@@H](CCC(N)=O)C(=O)N[C@@H](CCC(N)=O)C(=O)N[C@@H](CC(=O)O)C(=O)N[C@@H](Cc1ccccc1)C(=O)N[C@H](C(=O)N[C@@H](CC(N)=O)C(=O)N[C@@H](Cc1c[nH]c2ccccc12)C(=O)N[C@@H](CC(C)C)C(=O)N[C@@H](CC(C)C)C(=O)N[C@@H](C)C(=O)N[C@@H](CCC(N)=O)C(=O)N[C@@H](CCCNC(=N)N)C(=O)N1CCC[C@H]1C(=O)N[C@@H](CO)C(=O)N[C@@H](CO)C(=O)NCC(=O)O)C(C)C [Compound 288] | – | < 6 | – | –
6 | CC[C@H](C)[C@H](NC(=O)[C@H](Cc1ccccc1)NC(=O)[C@@H](NC(=O)CNC(=O)[C@H](CCC(=O)O)NC(=O)C(C)(C)NC(=O)[C@H](Cc1ccc(O)cc1)NC)[C@@H](C)O)C(=O)N[C@@H](CO)C(=O)N[C@@H](CC(=O)O)C(=O)N[C@@H](Cc1ccc(O)cc1)C(=O)N[C@@H](CO)C(=O)N[C@H](C(=O)NC(C)(C)C(=O)N[C@@H](CC(C)C)C(=O)N[C@@H](CC(=O)O)C(=O)N[C@@H](CCCNC(=N)N)C(=O)NC(C)(C)C(=O)N[C@@H](C)C(=O)N[C@@H](CCC(N)=O)C(=O)NC(C)(C)C(=O)N[C@@H](CCCCNC(=O)COCCOCCNC(=O)COCCOCCNC(=O)CC[C@H](NC(=O)CC[C@H](NC(=O)CCCCCCCCCCCCCCCCC(=O)O)C(=O)O)C(=O)O)C(=O)N[C@@H](Cc1ccccc1)C(=O)N[C@H](C(=O)N[C@@H](CC(N)=O)C(=O)N[C@@H](Cc1c[nH]c2ccccc12)C(=O)N[C@@H](CC(C)C)C(=O)N[C@@H](CC(C)C)C(=O)N[C@@H](C)C(=O)N[C@@H](CCC(N)=O)C(=O)N[C@@H](CCCNC(=N)N)C(N)=O)C(C)C)[C@@H](C)CC [Compound 267] (H-[NMeY][Aib]EGTFISDYSI[Aib]LDR[Aib]AQ[Aib]K([AEEA-AEEA-γGlu-γGlu-C18 diacid])FVNWLLAQR-NH2) | – | < 6 | – | –
7 | CC[C@H](C)[C@H](NC(=O)[C@H](Cc1ccccc1)NC(=O)[C@@H](NC(=O)CNC(=O)[C@H](CCC(=O)O)NC(=O)C(C)(C)NC(=O)[C@H](Cc1ccc(O)cc1)NC)[C@@H](C)O)C(=O)N[C@@H](CO)C(=O)N[C@@H](CC(=O)O)C(=O)N[C@@H](Cc1ccc(O)cc1)C(=O)N[C@@H](CO)C(=O)N[C@H](C(=O)NC(C)(C)C(=O)N[C@@H](CC(C)C)C(=O)N[C@@H](CC(=O)O)C(=O)N[C@@H](CCCNC(=N)N)C(=O)NC(C)(C)C(=O)N[C@@H](C)C(=O)N[C@@H](CCC(N)=O)C(=O)NC(C)(C)C(=O)N[C@@H](CCCCNC(=O)COCCOCCNC(=O)COCCOCCNC(=O)CC[C@H](NC(=O)CCCCCCCCCCCCCCCCC(=O)O)C(=O)O)C(=O)N[C@@H](Cc1ccccc1)C(=O)N[C@H](C(=O)N[C@@H](CC(N)=O)C(=O)N[C@@H](Cc1c[nH]c2ccccc12)C(=O)N[C@@H](CC(C)C)C(=O)N[C@@H](CC(C)C)C(=O)N[C@@H](C)C(=O)N[C@@H](CCC(N)=O)C(=O)N[C@@H](CO)C(=O)N1CCC[C@H]1C(=O)N[C@@H](CO)C(=O)N[C@@H](CO)C(=O)NCC(=O)N[C@@H](C)C(=O)N1CCC[C@H]1C(=O)N1CCC[C@H]1C(=O)N1CCC[C@H]1C(=O)N[C@@H](CO)C(N)=O)C(C)C)[C@@H](C)CC [Compound 91] (H-[NMeY][Aib]EGTFISDYSI[Aib]LDR[Aib]AQ[Aib]K([AEEA-AEEA-γGlu-C18 diacid])FVNWLLAQSPSSGAPPPS-NH2) | – | – | ≥ 60 | ≥ 15
